± gives the expanded uncertainty stated by the source.
Details: 323.14 K, Liquid, Vibrating tube method

FC(C(F)(F)F)C(F)(F)F [1,1,1,2,3,3,3-heptafluoropropane]
Details | mass density [kg/m3]
1040 kPa | 1273.4 ± 1.5
1060 kPa | 1273.7 ± 1.5
1070 kPa | 1274.1 ± 1.5
1090 kPa | 1274.2 ± 1.5
1110 kPa | 1274.5 ± 1.5
1130 kPa | 1274.7 ± 1.5
1140 kPa | 1275.1 ± 1.5
1170 kPa | 1275.4 ± 1.5
1180 kPa | 1275.5 ± 1.5
1200 kPa | 1275.9 ± 1.5
1220 kPa | 1276 ± 1.5
1240 kPa | 1276.4 ± 1.5
1260 kPa | 1276.7 ± 1.5
1290 kPa | 1276.9 ± 1.5
1330 kPa | 1277.6 ± 1.5
1350 kPa | 1277.8 ± 1.5
1370 kPa | 1278.2 ± 1.5
1390 kPa | 1278.3 ± 1.5
1410 kPa | 1278.7 ± 1.5
1420 kPa | 1278.8 ± 1.5
1450 kPa | 1279.2 ± 1.5
1470 kPa | 1279.6 ± 1.5
1500 kPa | 1279.9 ± 1.5
1520 kPa | 1280.1 ± 1.5
1550 kPa | 1280.6 ± 1.5
1580 kPa | 1281.1 ± 1.5
1610 kPa | 1281.4 ± 1.5
1630 kPa | 1281.6 ± 1.5
1640 kPa | 1282 ± 1.5
1670 kPa | 1282.1 ± 1.5
1690 kPa | 1282.5 ± 1.5
1710 kPa | 1282.7 ± 1.5
1730 kPa | 1283.1 ± 1.5
1750 kPa | 1283.3 ± 1.5
1780 kPa | 1283.7 ± 1.5
1860 kPa | 1284.7 ± 1.5
1880 kPa | 1285 ± 1.5
1900 kPa | 1285.3 ± 1.5
1920 kPa | 1285.4 ± 1.5
1940 kPa | 1285.8 ± 1.5
1960 kPa | 1285.9 ± 1.5
1980 kPa | 1286.3 ± 1.5
2000 kPa | 1286.6 ± 1.5
2020 kPa | 1286.8 ± 1.5
2290 kPa | 1290.2 ± 1.5
2310 kPa | 1290.6 ± 1.5
2330 kPa | 1290.7 ± 1.5
2350 kPa | 1291 ± 1.5
2380 kPa | 1291.3 ± 1.5
2390 kPa | 1291.5 ± 1.5
2410 kPa | 1291.7 ± 1.5
2430 kPa | 1291.9 ± 1.5
2450 kPa | 1292.3 ± 1.5
2480 kPa | 1292.4 ± 1.5
2500 kPa | 1292.9 ± 1.5
2530 kPa | 1293.2 ± 1.5
2560 kPa | 1293.6 ± 1.5
2570 kPa | 1293.8 ± 1.5
2600 kPa | 1294 ± 1.5
2610 kPa | 1294.3 ± 1.5
2630 kPa | 1294.4 ± 1.5
2650 kPa | 1294.8 ± 1.5
2670 kPa | 1295 ± 1.5
2830 kPa | 1296.9 ± 1.5
2890 kPa | 1297.6 ± 1.5
2920 kPa | 1297.7 ± 1.5
2940 kPa | 1298.3 ± 1.5
2960 kPa | 1298.4 ± 1.5
2980 kPa | 1298.6 ± 1.5
3060 kPa | 1299.4 ± 1.5
3310 kPa | 1302.4 ± 1.5
3340 kPa | 1302.7 ± 1.5
3360 kPa | 1303 ± 1.5
3380 kPa | 1303.3 ± 1.5
3410 kPa | 1303.5 ± 1.5
3440 kPa | 1303.9 ± 1.5
3470 kPa | 1304.1 ± 1.5
3480 kPa | 1304.3 ± 1.5
3510 kPa | 1304.5 ± 1.5
3530 kPa | 1304.8 ± 1.5
3550 kPa | 1305 ± 1.5
3570 kPa | 1305.4 ± 1.5
3600 kPa | 1305.5 ± 1.5
3640 kPa | 1306.1 ± 1.5
3660 kPa | 1306.3 ± 1.5
3680 kPa | 1306.5 ± 1.5
3700 kPa | 1306.7 ± 1.5
3720 kPa | 1307 ± 1.5
3750 kPa | 1307.2 ± 1.5
3770 kPa | 1307.5 ± 1.5
3790 kPa | 1307.7 ± 1.5
3810 kPa | 1308 ± 1.5
3840 kPa | 1308.2 ± 1.5
3860 kPa | 1308.5 ± 1.5
3880 kPa | 1308.7 ± 1.5
3900 kPa | 1309 ± 1.5
3920 kPa | 1309.1 ± 1.5
3950 kPa | 1309.4 ± 1.5
3970 kPa | 1309.8 ± 1.5
4000 kPa | 1309.9 ± 1.5
4020 kPa | 1310.2 ± 1.5
4040 kPa | 1310.3 ± 1.5
4070 kPa | 1310.7 ± 1.5

— the NIST ThermoML archive (doi:10.1021/je700260f)
